From ChEMBL document CHEMBL1201862, “PubChem BioAssay data set” (2004)
The source made the active and inactive calls.

Columns and labels:
[1] = target: T1, G-protein coupled receptor 55 (Homo sapiens, UniProt Q9Y2T6); assay: GPR55 antagonists blocking LPI-driven arrestin recruitment, primary screen, imaging, U2OS, beta-arrestin-GFP, LPI agonist (AID 2013); type: functional;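 also: antagonist potency measured as reduced agonist-driven arrestin aggregation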
[2] = target: Induced myeloid leukemia cell differentiation protein Mcl-1 (Homo sapiens, UniProt Q07820); type: functional
Cannabinoid receptor 1 [3] = target: T2, Cannabinoid receptor 1 (Homo sapiens, UniProt P21554); assay: SAR analysis of antagonists of the Cannabinoid Receptor 1 using an Image-Based Assay - Set 2. [Related pubchem assays (depositor defined):AID2013, AID2026]; type: functional
[4] = target: T3, G-protein coupled receptor 35 (Homo sapiens, UniProt Q9HC97); assay: SAR analysis of Agonists of the GPR35 Receptor using an Image-Based Assay - Set 2. [Related pubchem assays (depositor defined):AID2013, AID2026]; type: functional
Cannabinoid receptor 2 [5] = target: T4, Cannabinoid receptor 2 (Homo sapiens, UniProt P34972); assay: SAR analysis of antagonists of the Cannabinoid Receptor 2 using an Image-Based Assay. [Related pubchem assays (depositor defined):AID2013, AID2026]; type: functional
Cannabinoid receptor 1 [6] = target: T2, Cannabinoid receptor 1; assay: SAR analysis of agonists of the Cannabinoid Receptor 1 using an Image-Based Assay - Set 2. [Related pubchem assays (depositor defined):AID2013, AID2026]; type: functional
[7] = target: T3, G-protein coupled receptor 35; assay: SAR analysis of Antagonists of the GPR35 Receptor using an Image-Based Assay - Set 3. [Related pubchem assays (depositor defined):AID2013, AID2026]; type: functional
[8] = target: T1, G-protein coupled receptor 55; assay: GPR55 antagonist potency of analogs, SAR follow-up, imaging, U2OS, beta-arrestin-GFP, LPI agonist, set 2 (AID 2820); type: functional
Cannabinoid receptor 1 [9] = target: T2, Cannabinoid receptor 1; assay: SAR analysis of antagonists of the Cannabinoid Receptor 1 using an Image-Based Assay - Set 4. [Related pubchem assays (depositor defined):AID2013, AID2026]; type: functional
[10] = target: T1, G-protein coupled receptor 55; assay: SAR Analysis of Selective Antagonists of GPR55 using an Image-Based Assay - Set 4. [Related pubchem assays (depositor defined):AID2013, AID2026]; type: functional
Cannabinoid receptor 2 [11] = target: T4, Cannabinoid receptor 2; assay: SAR analysis of antagonists of the Cannabinoid Receptor 2 using an Image-Based Assay - Set 3. [Related pubchem assays (depositor defined):AID2013, AID2026]; type: functional
Cannabinoid receptor 2 [12] = target: T4, Cannabinoid receptor 2; assay: SAR analysis of agonists of the Cannabinoid Receptor 2 using an Image-Based Assay. [Related pubchem assays (depositor defined):AID2013, AID2026]; type: functional
Cannabinoid receptor 2 [13] = target: T4, Cannabinoid receptor 2; assay: SAR analysis of agonists of the Cannabinoid Receptor 2 using an Image-Based Assay - Set 3. [Related pubchem assays (depositor defined):AID2013, AID2026]; type: functional
[14] = target: Tyrosine-protein phosphatase non-receptor type 11 (Homo sapiens, UniProt Q06124); assay: SHP2 phosphatase inhibition, dose response, selectivity assay for STEP inhibitor project, biochemical (AID 602367); type: functional; settings: read-out: IC50_Mean
[15] = target: Tyrosine-protein phosphatase non-receptor type 5 (Homo sapiens, UniProt P54829); assay: STEP phosphatase inhibitors, confirmation, biochemical, fluorescence intensity, uHTS hits (AID 602372); type: functional; settings: read-out: IC50_Mean
[16] = target: T5, Dual specificity protein phosphatase 3 (Homo sapiens, UniProt P51452); assay: VHR phosphatase inhibition, dose response, selectivity assay for STEP inhibitor project, biochemical (AID 602374); type: functional; settings: read-out: IC50_Mean
Caspase-6 = target: T6, Caspase-6 (Homo sapiens, UniProt P55212); assay: human caspase-6 inhibitors, dose response, biochemical, VEID-R110 fluorescence, cherry-pick (AID 720632)
T6 sequence (P55212 whole entry): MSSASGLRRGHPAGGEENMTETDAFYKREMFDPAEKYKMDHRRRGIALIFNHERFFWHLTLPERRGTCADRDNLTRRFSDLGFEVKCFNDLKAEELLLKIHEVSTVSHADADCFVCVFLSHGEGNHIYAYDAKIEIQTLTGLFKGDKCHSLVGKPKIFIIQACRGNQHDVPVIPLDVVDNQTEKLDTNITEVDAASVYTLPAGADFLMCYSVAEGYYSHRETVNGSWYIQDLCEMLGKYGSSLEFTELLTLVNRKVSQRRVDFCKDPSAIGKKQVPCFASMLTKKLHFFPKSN

[17] = target: Peroxisome proliferator-activated receptor gamma/Nuclear receptor coactivator 1 (Homo sapiens, UniProt P37231); assay: TR-FRET dose response biochemical High Throughput Screening assay for agonists of the steroid receptor coactivator 1 (SRC-1) recruitment by the peroxisome proliferator-activated receptor gamma (PPAR gamma): non-selective agonists. [Related pubchem assays (depositor defined):AID1300, AID1808, AID504735, AID631]; type: protein assay
[18] = target: Peroxisome proliferator-activated receptor gamma/Nuclear receptor coactivator 3 (Homo sapiens, UniProt P37231); assay: TR-FRET dose response biochemical High Throughput Screening assay for agonists of the steroid receptor coactivator 3 (SRC-3) recruitment by the peroxisome proliferator-activated receptor gamma (PPAR gamma): non-selective agonists. [Related pubchem assays: 1301 (Confirmation screen.), 1048 (Primary screen.)]; type: functional
[19] = target: Peroxisome proliferator-activated receptor gamma/Nuclear receptor coactivator 2 (Homo sapiens, UniProt P37231); assay: TR-FRET dose response biochemical High Throughput Screening assay for agonists of the steroid receptor coactivator 2 (SRC-2) recruitment by the peroxisome proliferator-activated receptor gamma (PPAR gamma): non-selective agonists. [Related pubchem assays: 1297, 1032 ]; type: functional
Coagulation factor XII = target: T7, Coagulation factor XII (Homo sapiens, UniProt P00748); assay: Factor XIIa Dose Response Confirmation from Single Well HTS. [Related pubchem assays (depositor defined):AID701]; type: functional
T7 sequence (P00748 whole entry): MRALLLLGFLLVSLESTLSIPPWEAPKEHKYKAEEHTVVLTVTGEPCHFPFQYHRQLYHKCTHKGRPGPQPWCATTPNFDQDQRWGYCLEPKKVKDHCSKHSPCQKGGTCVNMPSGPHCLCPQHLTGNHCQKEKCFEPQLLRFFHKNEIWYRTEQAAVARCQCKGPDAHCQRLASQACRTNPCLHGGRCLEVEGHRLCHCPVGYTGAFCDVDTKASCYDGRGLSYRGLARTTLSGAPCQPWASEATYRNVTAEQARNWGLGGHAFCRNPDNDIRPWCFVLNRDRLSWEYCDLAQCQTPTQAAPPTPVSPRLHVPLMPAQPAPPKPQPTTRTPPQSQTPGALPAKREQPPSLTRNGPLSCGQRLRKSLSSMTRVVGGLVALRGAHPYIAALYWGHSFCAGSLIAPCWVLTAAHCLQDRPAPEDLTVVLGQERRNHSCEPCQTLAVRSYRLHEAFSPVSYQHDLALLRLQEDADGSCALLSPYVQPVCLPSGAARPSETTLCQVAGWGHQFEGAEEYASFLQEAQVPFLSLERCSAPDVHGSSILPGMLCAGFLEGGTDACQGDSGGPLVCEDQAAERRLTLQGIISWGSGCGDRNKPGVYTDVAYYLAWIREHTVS

[20] = target: Tyrosine-protein phosphatase non-receptor type 12 (Homo sapiens, UniProt Q05209); assay: SAR Selectivity Analysis of small molecule inhibitors of PEST using pCAP in a fluorescence assay. [Related pubchem assays (depositor defined):AID1779, AID1784, AID2135]; type: functional
[21] = target: T8, Tyrosine-protein phosphatase non-receptor type 22 (Homo sapiens, UniProt Q9Y2R2); assay: SAR LYP1 Fluorescent Assay using OMFP substrate for In Vitro dose response studies - Set 3. [Related pubchem assays (depositor defined):AID1779, AID1784, AID2140, AID2686]; type: functional
T8 sequence (Q9Y2R2 whole entry): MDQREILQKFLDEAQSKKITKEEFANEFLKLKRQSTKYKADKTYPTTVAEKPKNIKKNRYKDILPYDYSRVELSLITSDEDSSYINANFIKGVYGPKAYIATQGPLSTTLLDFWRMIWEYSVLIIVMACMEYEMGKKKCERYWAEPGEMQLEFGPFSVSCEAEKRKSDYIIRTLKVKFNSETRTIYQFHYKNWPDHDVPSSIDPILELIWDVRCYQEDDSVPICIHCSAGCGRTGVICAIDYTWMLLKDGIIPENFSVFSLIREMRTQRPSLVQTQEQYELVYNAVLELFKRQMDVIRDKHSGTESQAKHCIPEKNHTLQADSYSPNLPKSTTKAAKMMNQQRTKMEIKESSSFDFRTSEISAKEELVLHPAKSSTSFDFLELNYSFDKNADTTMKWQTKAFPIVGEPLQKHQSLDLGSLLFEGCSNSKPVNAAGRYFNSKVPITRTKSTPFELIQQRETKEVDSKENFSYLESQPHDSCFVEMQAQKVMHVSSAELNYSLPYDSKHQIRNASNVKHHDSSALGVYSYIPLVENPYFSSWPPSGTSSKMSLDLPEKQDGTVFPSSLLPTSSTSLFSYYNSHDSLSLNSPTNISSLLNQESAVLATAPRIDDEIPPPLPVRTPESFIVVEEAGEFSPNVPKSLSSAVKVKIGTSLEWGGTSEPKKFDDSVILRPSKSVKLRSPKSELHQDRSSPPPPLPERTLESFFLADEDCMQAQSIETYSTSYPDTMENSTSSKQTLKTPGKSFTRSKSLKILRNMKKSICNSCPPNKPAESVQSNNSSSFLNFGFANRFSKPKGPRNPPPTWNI

[22] = target: T9, Tyrosine-protein phosphatase non-receptor type 7 (Homo sapiens, UniProt P35236); assay: redox-dependent HePTP inhibition, mechanism study, biochemical, fluorescence (AID 2068); type: functional
T9 sequence (P35236 whole entry): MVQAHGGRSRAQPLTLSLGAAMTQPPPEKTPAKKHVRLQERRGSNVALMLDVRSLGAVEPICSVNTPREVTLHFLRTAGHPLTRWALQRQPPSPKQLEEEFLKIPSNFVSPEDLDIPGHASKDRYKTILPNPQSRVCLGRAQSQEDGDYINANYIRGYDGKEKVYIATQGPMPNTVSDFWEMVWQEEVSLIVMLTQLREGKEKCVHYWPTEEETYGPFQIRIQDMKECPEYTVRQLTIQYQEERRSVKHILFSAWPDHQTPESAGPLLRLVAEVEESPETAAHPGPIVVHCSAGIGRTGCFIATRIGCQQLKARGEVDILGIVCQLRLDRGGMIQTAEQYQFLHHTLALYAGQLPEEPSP

[23] = target: T9, Tyrosine-protein phosphatase non-receptor type 7; assay: HePTP (PTPN7) phosphatase inhibitor potency, SAR follow-up, biochemical, set 2 (AID 449736); type: functional
[24] = target: T8, Tyrosine-protein phosphatase non-receptor type 22; assay: LYP (PTPN22) phosphatase inhibitor potency, SAR follow-up, biochemical, pCAP fluorogenic substrate, fluorescence, set 3 (AID 449727); type: functional
[25] = target: T5, Dual specificity protein phosphatase 3; assay: SAR VHR1 Fluorescent Assay for In Vitro dose response studies Set 2. [Related pubchem assays (depositor defined):AID1654, AID1661, AID1878]; type: functional
[26] = target: T10, Dual specificity protein phosphatase 6 (Rattus norvegicus, UniProt Q64346); type: functional;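 also: confirmatory in vitro dose-response testing of MKP-3 inhibition; recombinant His-tagged MKP-3 made in E. coli BL21 with OMFP substrate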
T10 sequence (Q64346 whole entry): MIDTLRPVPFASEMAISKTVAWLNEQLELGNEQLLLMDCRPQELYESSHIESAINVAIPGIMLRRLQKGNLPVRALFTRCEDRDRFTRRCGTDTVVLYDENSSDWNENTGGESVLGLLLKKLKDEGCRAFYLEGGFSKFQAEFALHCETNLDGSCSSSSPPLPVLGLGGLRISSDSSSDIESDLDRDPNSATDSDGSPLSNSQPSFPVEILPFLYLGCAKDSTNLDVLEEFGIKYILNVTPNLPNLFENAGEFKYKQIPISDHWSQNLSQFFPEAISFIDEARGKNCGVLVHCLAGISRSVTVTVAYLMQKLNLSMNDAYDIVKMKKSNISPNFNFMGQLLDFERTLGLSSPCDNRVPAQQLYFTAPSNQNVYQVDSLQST

[27] = target: T8, Tyrosine-protein phosphatase non-receptor type 22; assay: PTPN22 phosphatase inhibition, dose response, selectivity assay for STEP inhibitor project, biochemical (AID 624241); type: functional

T1 sequence (Q9Y2T6 whole entry): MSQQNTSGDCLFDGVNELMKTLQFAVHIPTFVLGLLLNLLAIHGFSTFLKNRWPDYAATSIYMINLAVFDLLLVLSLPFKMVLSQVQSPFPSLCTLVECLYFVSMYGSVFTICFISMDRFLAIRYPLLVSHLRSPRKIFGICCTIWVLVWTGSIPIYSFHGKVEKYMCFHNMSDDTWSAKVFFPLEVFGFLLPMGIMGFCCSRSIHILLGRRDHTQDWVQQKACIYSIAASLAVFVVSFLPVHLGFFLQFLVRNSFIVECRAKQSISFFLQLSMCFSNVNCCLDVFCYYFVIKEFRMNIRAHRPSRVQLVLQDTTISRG
T4 sequence (P34972 whole entry): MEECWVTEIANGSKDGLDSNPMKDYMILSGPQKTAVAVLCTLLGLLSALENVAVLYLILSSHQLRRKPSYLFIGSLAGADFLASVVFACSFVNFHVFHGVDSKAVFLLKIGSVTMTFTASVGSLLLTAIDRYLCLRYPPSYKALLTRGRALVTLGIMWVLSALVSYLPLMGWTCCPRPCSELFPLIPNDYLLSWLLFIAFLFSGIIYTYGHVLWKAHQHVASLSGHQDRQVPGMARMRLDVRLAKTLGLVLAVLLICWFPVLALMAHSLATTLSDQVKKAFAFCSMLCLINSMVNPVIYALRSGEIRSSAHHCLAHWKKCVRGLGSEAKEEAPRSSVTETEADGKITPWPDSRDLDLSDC
T5 sequence (P51452 whole entry): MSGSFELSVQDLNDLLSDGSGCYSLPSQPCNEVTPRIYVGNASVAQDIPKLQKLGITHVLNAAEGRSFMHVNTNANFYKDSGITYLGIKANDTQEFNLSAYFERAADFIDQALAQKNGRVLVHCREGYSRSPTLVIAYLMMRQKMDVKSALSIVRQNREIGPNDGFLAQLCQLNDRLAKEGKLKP
T2 sequence (P21554 whole entry): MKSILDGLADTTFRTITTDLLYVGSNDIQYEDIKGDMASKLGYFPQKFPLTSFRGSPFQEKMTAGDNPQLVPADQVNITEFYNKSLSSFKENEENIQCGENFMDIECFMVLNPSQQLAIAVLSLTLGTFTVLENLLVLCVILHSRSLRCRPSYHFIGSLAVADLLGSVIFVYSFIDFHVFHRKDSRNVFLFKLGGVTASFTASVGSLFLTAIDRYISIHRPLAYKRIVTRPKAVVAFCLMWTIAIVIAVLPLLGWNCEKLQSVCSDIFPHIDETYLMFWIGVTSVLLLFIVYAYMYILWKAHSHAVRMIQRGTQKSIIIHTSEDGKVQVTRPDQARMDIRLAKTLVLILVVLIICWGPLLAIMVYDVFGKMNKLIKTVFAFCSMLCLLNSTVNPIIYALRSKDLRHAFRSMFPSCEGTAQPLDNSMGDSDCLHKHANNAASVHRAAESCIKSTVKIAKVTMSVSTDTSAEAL
Tyrosine-protein phosphatase non-receptor type 5, sequence (P54829 whole entry): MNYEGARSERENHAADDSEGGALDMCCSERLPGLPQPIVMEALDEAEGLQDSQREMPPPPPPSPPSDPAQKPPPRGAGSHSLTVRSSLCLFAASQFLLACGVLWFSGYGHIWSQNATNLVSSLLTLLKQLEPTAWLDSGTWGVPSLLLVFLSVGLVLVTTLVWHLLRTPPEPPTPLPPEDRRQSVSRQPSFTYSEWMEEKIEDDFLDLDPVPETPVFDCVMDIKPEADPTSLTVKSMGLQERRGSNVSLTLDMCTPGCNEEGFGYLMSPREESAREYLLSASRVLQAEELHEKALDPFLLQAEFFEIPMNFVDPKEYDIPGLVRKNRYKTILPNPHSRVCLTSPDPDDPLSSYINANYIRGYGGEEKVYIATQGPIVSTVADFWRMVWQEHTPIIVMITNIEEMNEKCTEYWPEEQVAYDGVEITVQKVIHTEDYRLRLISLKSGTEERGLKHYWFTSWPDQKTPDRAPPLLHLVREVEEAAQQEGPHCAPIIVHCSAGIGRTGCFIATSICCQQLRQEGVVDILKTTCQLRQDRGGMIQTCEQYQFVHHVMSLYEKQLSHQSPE
T3 sequence (Q9HC97 whole entry): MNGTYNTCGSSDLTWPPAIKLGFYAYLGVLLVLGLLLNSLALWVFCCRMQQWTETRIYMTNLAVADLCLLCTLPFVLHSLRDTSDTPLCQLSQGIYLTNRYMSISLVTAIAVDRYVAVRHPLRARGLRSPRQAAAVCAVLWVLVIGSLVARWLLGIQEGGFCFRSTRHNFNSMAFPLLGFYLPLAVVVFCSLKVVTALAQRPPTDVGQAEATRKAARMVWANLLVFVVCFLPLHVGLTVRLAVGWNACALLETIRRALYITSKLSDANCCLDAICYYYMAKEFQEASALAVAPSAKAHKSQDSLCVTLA
Tyrosine-protein phosphatase non-receptor type 11, sequence (Q06124 whole entry): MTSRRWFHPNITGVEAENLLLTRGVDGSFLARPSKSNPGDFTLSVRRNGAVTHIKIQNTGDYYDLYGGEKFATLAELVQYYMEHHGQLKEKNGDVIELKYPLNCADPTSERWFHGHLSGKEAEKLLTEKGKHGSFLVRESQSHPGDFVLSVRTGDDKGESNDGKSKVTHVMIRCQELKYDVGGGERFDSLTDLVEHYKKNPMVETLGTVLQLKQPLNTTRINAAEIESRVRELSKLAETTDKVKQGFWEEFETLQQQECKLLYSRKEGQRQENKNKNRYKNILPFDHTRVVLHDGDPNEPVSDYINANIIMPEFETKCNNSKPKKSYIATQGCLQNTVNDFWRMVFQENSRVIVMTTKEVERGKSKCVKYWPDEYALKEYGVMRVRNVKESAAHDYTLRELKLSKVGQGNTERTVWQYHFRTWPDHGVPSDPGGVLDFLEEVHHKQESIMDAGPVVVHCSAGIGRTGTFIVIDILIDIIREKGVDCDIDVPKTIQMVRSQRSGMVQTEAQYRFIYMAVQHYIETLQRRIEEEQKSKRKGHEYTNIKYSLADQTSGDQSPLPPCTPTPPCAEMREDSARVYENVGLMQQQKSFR
Induced myeloid leukemia cell differentiation protein Mcl-1, sequence (Q07820 whole entry): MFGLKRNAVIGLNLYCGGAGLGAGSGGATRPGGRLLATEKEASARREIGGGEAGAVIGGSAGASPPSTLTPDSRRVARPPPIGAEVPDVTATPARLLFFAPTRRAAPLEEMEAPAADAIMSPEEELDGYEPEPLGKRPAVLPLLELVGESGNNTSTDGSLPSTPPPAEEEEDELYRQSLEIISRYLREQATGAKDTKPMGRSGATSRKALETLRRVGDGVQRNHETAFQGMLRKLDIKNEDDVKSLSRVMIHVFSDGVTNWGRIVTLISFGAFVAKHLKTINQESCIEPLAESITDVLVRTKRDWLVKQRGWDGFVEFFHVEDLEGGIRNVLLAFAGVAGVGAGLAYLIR
Tyrosine-protein phosphatase non-receptor type 12, sequence (Q05209 whole entry): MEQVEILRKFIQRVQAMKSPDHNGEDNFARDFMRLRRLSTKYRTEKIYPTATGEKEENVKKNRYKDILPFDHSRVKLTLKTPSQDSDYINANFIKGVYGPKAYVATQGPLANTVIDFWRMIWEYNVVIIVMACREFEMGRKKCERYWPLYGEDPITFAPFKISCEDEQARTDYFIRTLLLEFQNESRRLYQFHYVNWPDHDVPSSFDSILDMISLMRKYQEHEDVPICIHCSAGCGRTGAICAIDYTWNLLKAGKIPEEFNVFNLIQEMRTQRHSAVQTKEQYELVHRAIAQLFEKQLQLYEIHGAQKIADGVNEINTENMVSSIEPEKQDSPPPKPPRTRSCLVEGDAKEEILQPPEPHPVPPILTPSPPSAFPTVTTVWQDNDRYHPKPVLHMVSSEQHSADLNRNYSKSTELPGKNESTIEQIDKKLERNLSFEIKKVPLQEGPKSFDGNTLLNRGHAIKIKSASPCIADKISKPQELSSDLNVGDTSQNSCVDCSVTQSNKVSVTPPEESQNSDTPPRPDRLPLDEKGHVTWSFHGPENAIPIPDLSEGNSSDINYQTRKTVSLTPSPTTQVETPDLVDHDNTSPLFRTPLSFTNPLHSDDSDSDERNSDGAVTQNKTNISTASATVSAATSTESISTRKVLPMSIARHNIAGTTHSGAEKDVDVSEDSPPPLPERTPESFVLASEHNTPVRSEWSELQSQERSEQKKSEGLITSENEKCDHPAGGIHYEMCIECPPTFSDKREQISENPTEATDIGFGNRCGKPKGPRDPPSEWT

Cc1cc(C)c2nc(-c3ccccn3)cc(C(=O)Nc3ccc(S(=O)(=O)Nc4onc(C)c4C)cc3)c2c1
inactive: IC50 (Cannabinoid receptor 1 [3]) > 32 µM | EC50 [4] > 32 µM | IC50 (Cannabinoid receptor 2 [5]) > 32 µM | EC50 (Cannabinoid receptor 1 [6]) > 32 µM | IC50 [7] > 32 µM | IC50 (Cannabinoid receptor 1 [9]) 24.6 µM | IC50 (Cannabinoid receptor 2 [11]) > 32 µM | EC50 (Cannabinoid receptor 2 [12]) > 32 µM | EC50 (Cannabinoid receptor 2 [13]) > 32 µM | IC50 [15] 28.3 µM
active: IC50 [1] < 0.5 µM | IC50 [2] 4.01 µM | IC50 [8] 0.136 µM | IC50 [10] 0.263 µM | IC50 [14] 2.95 µM | IC50 [16] 2.73 µM | AC50 (Caspase-6) 14.7 µM

O=C(CCSc1nnc2ccc3ccccc3n12)Nc1ccc(F)cc1
20.9 µM (not active): EC50 [19]
inactive: EC50 [17] 24.3 µM | IC50 (Coagulation factor XII) > 50 µM
> 79.4 µM (not active): EC50 [18]

CCc1ccc(NC2=NC(=O)/C(=C/c3ccc(OCC(=O)O)cc3)S2)cc1
inactive: IC50 [26] > 100 µM | IC50 [15] 24.3 µM | IC50 [27] > 100 µM
active: IC50 [20] 12.6 µM | IC50 [21] 31.7 µM | IC50 [22] 4.53 µM | IC50 [23] 3.25 µM | IC50 [24] 12.9 µM | IC50 [25] 18.9 µM | IC50 [14] 9.52 µM | IC50 [16] 10.4 µM
